The results in this text go back to patent US7576094B2, “Spiro derivatives as lipoxygenase inhibitors” (Eli Lilly and Company, priority 2004, dated 2009).

The target of test [1] is T1, human recombinant 5-Lipoxygenase (Homo sapiens, UniProt P09917).
T1 sequence (P09917 1-674): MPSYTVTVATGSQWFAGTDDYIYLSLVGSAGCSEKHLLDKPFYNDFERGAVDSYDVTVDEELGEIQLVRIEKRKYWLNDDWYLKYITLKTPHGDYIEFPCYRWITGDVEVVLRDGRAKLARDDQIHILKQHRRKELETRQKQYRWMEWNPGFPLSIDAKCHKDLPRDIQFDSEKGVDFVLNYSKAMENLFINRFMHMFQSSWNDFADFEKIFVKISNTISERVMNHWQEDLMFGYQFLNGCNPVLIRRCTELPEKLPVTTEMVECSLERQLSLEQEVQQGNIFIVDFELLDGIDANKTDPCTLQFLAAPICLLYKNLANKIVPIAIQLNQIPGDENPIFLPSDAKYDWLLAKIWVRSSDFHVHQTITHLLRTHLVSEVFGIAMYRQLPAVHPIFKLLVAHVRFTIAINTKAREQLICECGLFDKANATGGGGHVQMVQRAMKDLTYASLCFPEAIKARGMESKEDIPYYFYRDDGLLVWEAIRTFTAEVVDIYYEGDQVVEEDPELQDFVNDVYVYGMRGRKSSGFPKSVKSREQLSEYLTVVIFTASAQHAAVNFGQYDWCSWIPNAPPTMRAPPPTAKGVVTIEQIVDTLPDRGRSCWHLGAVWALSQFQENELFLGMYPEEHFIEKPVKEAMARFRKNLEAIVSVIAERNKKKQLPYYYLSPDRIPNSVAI
In words: 5-Lipoxygenase Enzyme Assay. As to conditions: 70 μM arachidonic acid, 10 minute incubation at room temperature, FOX reagent, absorbance at 620 nm; read-out: inhibition of 5-Lipoxygenase with an IC50. The class given is biochemical. The method in brief:
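Recombinant human 5-LOX in 50 mM Tris-HCl pH 7.4 was preincubated with compound, then 70 μM arachidonic acid was added for 10 min at room temperature. Hydroperoxide was read by FOX reagent (ferric xylenol orange, 1 h complex formation) as absorbance at 620 nm. Five concentrations in triplicate were tested, starting at 10 μM.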

In test [2] the test system is release of the leukotriene LTB4 from a neutrophil cell line (MPRO cell line). In words: LTB4-Cell Assay. In kind it is cell-based. As to conditions: Mus musculus, 1 h, read-out: inhibition of LTB4 with an EC50. The method in brief:
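Mouse promyelocytic cells differentiated to neutrophils with 10 μM all-trans retinoic acid for 72 h, then stimulated with 1 μM A23187 plus compound for 1 h at 37° C. Supernatant LTB4 quantified by competitive EIA; 5 concentrations in quadruplicate from 10 μM top.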

`Cc1c(C)c2c(c(C)c1O)C1(CCC1)CC(C)(C)S2` [2′,2′,5′,7′,8′-pentamethyl-2′,3′-dihydrospiro[cyclobutane-1,4′-thiochromen]-6′-ol]: the IC50 in test [1] is less than 0.3 µM. Besides, the EC50 in test [2] was less than 5 µM.
As for `COC(C)C1=Cc2c(C)c(O)c(C)c(C)c2OC12CCC2` (centres unmarked) [3-(1-methoxyethyl)-5,7,8-trimethylspiro[chromene-2,1′-cyclobutan]-6-ol], the concentration for half-maximal inhibition (IC50) in test [1] was less than 0.3 µM. In addition, in test [2], the concentration for a half-maximal effect (EC50) is less than 5 µM.
On the same counts, the results for `CCONCC1=Cc2c(cc(C)c(O)c2C)OC12CCC2` [3-[(ethoxyamino)methyl]-5,7-dimethylspiro[chromene-2,1′-cyclobutan]-6-ol] are less than 0.3 µM and less than 5 µM.
As for `CCONC1CC2(CCC2)Sc2c(C)c(C)c(O)c(C)c21` (centres unmarked) [4′-(ethoxyamino)-5′,7′,8′-trimethyl-3′,4′-dihydrospiro[cyclobutane-1,2′-thiochromen]-6′-ol], the IC50 in test [1] is less than 0.3 µM. Also, the concentration giving a half-maximal response (EC50) in test [2] was less than 5 µM.
On the same counts, the results for `CCONC1CC2(CCC2)Sc2cc(C)c(O)c(C)c21` (centres unmarked) [4′-(ethoxyamino)-5′,7′-dimethyl-3′,4′-dihydrospiro[cyclobutane-1,2′-thiochromen]-6′-ol] are less than 0.3 µM and less than 5 µM.
On the same counts, the results for `CONC1CC2(CCC2)Sc2c(C)c(C)c(O)c(C)c21` (centres unmarked) [4′-(methoxyamino)-5′,7′,8′-trimethyl-3′,4′-dihydrospiro[cyclobutane-1,2′-thiochromen]-6′-ol] are less than 0.3 µM and less than 5 µM.
With `CONC1CC2(CCC2)Sc2cc(C)c(O)c(C)c21` (centres unmarked) [4′-(methoxyamino)-5′,7′-dimethyl-3′,4′-dihydrospiro[cyclobutane-1,2′-thiochromen]-6′-ol], the IC50 in test [1] was less than 0.3 µM. In addition, the EC50 in test [2] is less than 5 µM.
On the same counts, the results for `Cc1c(C)c2c(c(C)c1O)CCC1(CC1)O2` [5,7,8-trimethyl-3,4-dihydrospiro[chromene-2,1′-cyclopropan]-6-ol] are less than 0.3 µM and less than 5 µM.
On the same counts, the results for `Cc1cc2c(c(C)c1O)CCC1(CCC1)O2` [5,7-dimethyl-3,4-dihydrospiro[chromene-2,1′-cyclobutan]-6-ol] are less than 0.3 µM and less than 5 µM.
For the compound `Cc1cc2c(c(C)c1O)CC1(CCC1)CO2` [5,7-dimethylspiro[chroman-3,1′-cyclobutan]-6-ol], the IC50 in test [1] was less than 0.3 µM. The half-maximal effective concentration (EC50) in test [2] was less than 5 µM.
The corresponding values for `Cc1cc2c(c(C)c1O)C=CC1(CCC1)O2` [5,7-dimethylspiro[chromene-2,1′-cyclobutan]-6-ol] are less than 0.3 µM and less than 5 µM.
On the same counts, the results for `Cc1c(C)c2c(c(Cl)c1O)CCC1(CCC1)O2` [5-chloro-7,8-dimethyl-3,4-dihydrospiro[chromene-2,1′-cyclobutan]-6-ol] are less than 0.3 µM and less than 5 µM.
The corresponding values for `Cc1c(C)c2c(c(C)c1O)C1(CCC1)CCS2` [5′,7′,8′-trimethyl-2′,3′-dihydrospiro[cyclobutane, 1,4′-thiochromen]-6′-ol] are less than 0.3 µM and less than 5 µM.
With `CCO/N=C/C1=Cc2c(cc(C)c(O)c2C)OC12CCC2` [6-hydroxy-5,7-dimethylspiro[chromene-2,1′-cyclobutane]-3-carbaldehyde O-ethyloxime], the half-maximal inhibitory concentration (IC50) in test [1] was less than 0.3 µM. Also, the half-maximal effective concentration (EC50) in test [2] is less than 5 µM.
As to `CO/N=C1\CC2(CCC2)Sc2c(C)c(C)c(O)c(C)c21` [6′-hydroxy-5′,7′,8′-trimethylspiro[cyclobutane-1,2′-thiochroman]-4′(3′H)-one O-methyloxime], the IC50 in test [1] was less than 0.3 µM. For the same compound, the EC50 in test [2] was less than 5 µM.
The corresponding values for `Cc1c(O)cc2c(c1C)OC1(CCC1)CC2` [7,8-dimethyl-3,4-dihydrospiro[chromene-2,1′-cyclobutan]-6-ol] are less than 0.3 µM and less than 5 µM.
The corresponding values for `CC(C)(C)c1cc2c(cc1O)CCC1(CCC1)O2` [7-tert-butyl-3,4-dihydrospiro[chromene-2,1′-cyclobutan]-6-ol] are less than 0.3 µM and less than 5 µM.
For `Cc1c(O)c(C(C)(C)C)cc2c1CCC1(CCC1)O2` [7-tert-butyl-5-methyl-3,4-dihydrospiro[chromene-2,1′-cyclobutan]-6-ol], in test [1], the IC50 was less than 0.3 µM. Besides, in test [2], the EC50 was less than 5 µM.
The corresponding values for `CCc1cc2c(c(CC)c1O)CC(CSCC(=O)OC)C1(CCC1)O2` (centres unmarked) [methyl 2-((5,7-diethyl-6-hydroxyspiro[chroman-2,1′-cyclobutane]-3-yl)methylthio)acetate] are less than 0.3 µM and less than 5 µM.

One may read the IC50 as the concentration at which inhibition is half-maximal. As usually defined, the EC50 is the midpoint of the concentration-response curve.
